{"source": "patent US11191855B2", "about": "“1,7-diaryl-1,6-heptadiene-3,5-dione derivatives, methods for the production and use thereof” (UNIVERSITÄTSKLINIKUM REGENSBURG, priority 2015, dated 2021)", "key": {"S. aureus ATCC 25923": {"tested_on": "S. aureus ATCC 25923", "test": "Phototoxicity test c.2) (BlueV light source, emission maximum approx. 420 nm, CFU count)", "assay_type": "cell-based, Staphylococcus aureus", "settings": "Staphylococcus aureus, ATCC25923, light or radiation study, 5 min, irradiation 5 minutes, approx. 420 nm, 17.5 mW/cm^2, 5.3 J/cm^2, vs reference control; for log reduction at 10 µM: read-out: Effectiveness against S. aureus: Reduction in CFU in log10 at concentration of 10 μM; for log reduction at 50 µM: read-out: Effectiveness against S. aureus: Reduction in CFU in log10 at concentration of 50 μM", "protocol": "A sample of the bacterial cell Staphylococcus. aureus (ATCC number: 25923) or Escherichia. coli (ATCC number: 25922) was removed from a cryo-freeze culture and cultured under aerobic conditions at 37° C. and 175 rpm overnight in an orbital shaker (MAXQ4000, Thermo Scientific, Dubuque, Iowa, USA). Growth was carried out in 20 mL Todd-Hewitt broth (Carl Roth, Karlsruhe, Germany) supplemented with 0.3% of yeast extract (AppliChem, Darmstadt, Germany). In a second experiment, the photosensitizers (PS) used were dissolved in Millipore water and adjusted to various concentrations. 25 μL of a bacterial suspension grown overnight ( 108/mL) was incubated with 25 μL of photosensitizer solution of the various concentrations at room temperature for 10 seconds in darkness in a 96-well plate. Next, the suspension was irradiated for 5-20 minutes. For the irradiation, the light source BlueV from […], Germany) was used, which emits light from 380 to 480 nm (emission maximum at approximately 420 nm). The applied energy density was 17.5 mW/cm^2. Each experiment was accompanied by three controls in order to exclude side effect of the irradiation/photosensitizer (PS) on the survival of the bacteria: (i) no PS, only light (=light control), (ii) no light, only PS (=dark control) and (iii) neither light nor PS (=reference control). […] All of the tests were carried out four times. […] All of the remaining PS were tested against S. aureus ATCC 25923 (FIGS. 24-33). FIGS. 21-33 show the logarithmic reduction after illumination with respect to the reference control. […] The irradiation period was 5 minutes (emission maximum at approximately 420 nm) for an applied intensity of 17.5 mW/cm^2, i.e. an applied light energy (dosage) of 5.3 J/cm^2. The average reference control (arithmetic mean with standard deviation) (no light, no PS) was 3.9×10^8/mL. The logarithmic reduction after illumination is shown with respect to the reference control."}, "E. coli ATCC 25922": {"tested_on": "E. coli ATCC 25922", "test": "Phototoxicity test c.2) (BlueV light source, emission maximum approx. 420 nm, CFU count)", "assay_type": "cell-based, Escherichia coli", "settings": "light dose 15.7 J/cm^2, approx. 420 nm, 15 min at 17.5 mW/cm^2, vs reference control", "protocol": "A sample of the bacterial cell Staphylococcus. aureus (ATCC number: 25923) or Escherichia. coli (ATCC number: 25922) was removed from a cryo-freeze culture and cultured under aerobic conditions at 37° C. and 175 rpm overnight in an orbital shaker (MAXQ4000, Thermo Scientific, Dubuque, Iowa, USA). Growth was carried out in 20 mL Todd-Hewitt broth (Carl Roth, Karlsruhe, Germany) supplemented with 0.3% of yeast extract (AppliChem, Darmstadt, Germany).\nIn a second experiment, the photosensitizers (PS) used were dissolved in Millipore water and adjusted to various concentrations. 25 μL of a bacterial suspension grown overnight (˜108/mL) was incubated with 25 μL of photosensitizer solution of the various concentrations at room temperature for 10 seconds in darkness in a 96-well plate.\nNext, the suspension was irradiated for 5-20 minutes. For the irradiation, the light source BlueV from Waldmann (Villingen-Schwenningen, Germany) was used, which emits light from 380 to 480 nm (emission maximum at approximately 420 nm). The applied energy density was 17.5 mW/cm^2.\nEach experiment was accompanied by three controls in order to exclude side effect of the irradiation/photosensitizer (PS) on the survival of the bacteria: (i) no PS, only light (=light control), (ii) no light, only PS (=dark control) and (iii) neither light nor PS (=reference control). The determination of the colony forming units (CFU) per mL was also carried out in accordance with the method published by Miles, Misra and Irwin described above in section c.1). All of the tests were carried out four times.\nThe photosensitizers (PS) SACUR-01a, SACUR-03 and SACUR-07 were tested against the bacterial strains S. aureus ATCC 25923 and E. coli ATCC 25922 (FIGS. 21-23). All of the remaining PS were tested against S. aureus ATCC 25923 (FIGS. 24-33). FIGS. 21-33 show the logarithmic reduction after illumination with respect to the reference control.\nThe average reference control (arithmetic mean with standard deviation) (no light, no PS) was 3.6×10^8/mL for E. coli. The logarithmic reduction after illumination is shown with respect to the reference control."}}, "data": [{"compound": "COc1cc(/C=C/C(=O)CC(=O)/C=C/c2ccc(OCCN)c(OC)c2)ccc1OCCN.Cl.Cl", "note": "[Curcumin 01a hydrochloride]", "values": [{"measurement": "log reduction at 10 µM", "setting": "S. aureus ATCC 25923", "value": "> 3"}, {"measurement": "log reduction at 50 µM", "setting": "S. aureus ATCC 25923", "value": "> 5"}, {"measurement": "Effectiveness against E. Coli: Reduction in CFU in log10 at concentration of 10 μM", "setting": "E. coli ATCC 25922", "value": ">4", "unit": "log10"}, {"measurement": "Effectiveness against E. Coli: Reduction in CFU in log10 at concentration of 50 μM", "setting": "E. coli ATCC 25922", "value": ">5", "unit": "log10"}]}, {"compound": "Cl.Cl.Cl.Cl.NCCOc1ccc(/C=C/C(=O)CC(=O)/C=C/c2ccc(OCCN)c(OCCN)c2)cc1OCCN", "note": "[Curcumin 03 hydrochloride]", "values": [{"measurement": "log reduction at 10 µM", "setting": "S. aureus ATCC 25923", "value": "> 4"}, {"measurement": "log reduction at 50 µM", "setting": "S. aureus ATCC 25923", "value": "> 5"}, {"measurement": "Effectiveness against E. Coli: Reduction in CFU in log10 at concentration of 10 μM", "setting": "E. coli ATCC 25922", "value": ">4", "unit": "log10"}, {"measurement": "Effectiveness against E. Coli: Reduction in CFU in log10 at concentration of 50 μM", "setting": "E. coli ATCC 25922", "value": ">5", "unit": "log10"}]}]}
